Source: ChEMBL document CHEMBL1135130, “Substituted tetrahydrofuroyl-1-phenylalanine derivatives as potent and specific VLA-4 antagonists” (Bioorg Med Chem Lett, 2002)

Columns and labels:
Integrin alpha-4/beta-1 [1] = biological target: T1, Integrin alpha-4/beta-1 (Homo sapiens, UniProt P05556+P13612); test: Inhibition of alpha4-beta1 (very late) antigen binding with VCAM-1 immunoglobulin plus 5% human plasma; type: cell-free
Integrin alpha-4/beta-1 [2] = biological target: T1, Integrin alpha-4/beta-1; test: Inhibition of alpha4-beta1 (very late) antigen binding with VCAM-1 immunoglobulin; type: protein-complex assay
Integrin alpha-4/beta-7 = biological target: T2, Integrin alpha-4/beta-7 (Homo sapiens, UniProt P13612+P26010); test: Inhibition of alpha4-beta7 antigen with MAdCAM immunoglobulin; type: protein-complex assay
T2 sequence (P13612 whole entry): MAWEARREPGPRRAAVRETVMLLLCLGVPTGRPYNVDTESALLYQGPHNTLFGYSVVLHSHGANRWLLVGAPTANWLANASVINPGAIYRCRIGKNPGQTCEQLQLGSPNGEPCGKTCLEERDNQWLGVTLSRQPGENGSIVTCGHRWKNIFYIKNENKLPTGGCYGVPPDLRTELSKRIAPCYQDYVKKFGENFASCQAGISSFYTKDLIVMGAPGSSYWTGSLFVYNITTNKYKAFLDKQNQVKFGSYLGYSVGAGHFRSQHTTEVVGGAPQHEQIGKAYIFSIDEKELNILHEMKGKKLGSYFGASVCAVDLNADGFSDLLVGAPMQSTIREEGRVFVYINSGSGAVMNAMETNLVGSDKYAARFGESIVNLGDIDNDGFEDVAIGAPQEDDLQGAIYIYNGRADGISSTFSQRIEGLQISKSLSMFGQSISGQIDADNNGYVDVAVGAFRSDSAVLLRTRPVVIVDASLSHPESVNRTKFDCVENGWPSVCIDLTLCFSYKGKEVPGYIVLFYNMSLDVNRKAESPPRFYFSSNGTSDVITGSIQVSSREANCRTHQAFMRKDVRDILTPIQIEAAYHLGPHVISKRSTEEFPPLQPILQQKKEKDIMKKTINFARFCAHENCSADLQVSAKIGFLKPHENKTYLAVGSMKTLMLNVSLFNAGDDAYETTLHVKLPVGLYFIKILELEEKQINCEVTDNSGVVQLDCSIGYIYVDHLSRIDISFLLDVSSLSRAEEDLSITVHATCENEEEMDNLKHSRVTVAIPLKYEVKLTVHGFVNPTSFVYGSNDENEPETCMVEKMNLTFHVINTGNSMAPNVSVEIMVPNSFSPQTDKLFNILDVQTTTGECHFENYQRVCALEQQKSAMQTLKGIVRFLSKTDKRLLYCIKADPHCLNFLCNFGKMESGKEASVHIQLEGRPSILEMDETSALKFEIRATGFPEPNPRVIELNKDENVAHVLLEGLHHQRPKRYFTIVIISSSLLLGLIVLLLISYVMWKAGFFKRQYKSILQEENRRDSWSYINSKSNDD
T2 sequence (P26010 whole entry): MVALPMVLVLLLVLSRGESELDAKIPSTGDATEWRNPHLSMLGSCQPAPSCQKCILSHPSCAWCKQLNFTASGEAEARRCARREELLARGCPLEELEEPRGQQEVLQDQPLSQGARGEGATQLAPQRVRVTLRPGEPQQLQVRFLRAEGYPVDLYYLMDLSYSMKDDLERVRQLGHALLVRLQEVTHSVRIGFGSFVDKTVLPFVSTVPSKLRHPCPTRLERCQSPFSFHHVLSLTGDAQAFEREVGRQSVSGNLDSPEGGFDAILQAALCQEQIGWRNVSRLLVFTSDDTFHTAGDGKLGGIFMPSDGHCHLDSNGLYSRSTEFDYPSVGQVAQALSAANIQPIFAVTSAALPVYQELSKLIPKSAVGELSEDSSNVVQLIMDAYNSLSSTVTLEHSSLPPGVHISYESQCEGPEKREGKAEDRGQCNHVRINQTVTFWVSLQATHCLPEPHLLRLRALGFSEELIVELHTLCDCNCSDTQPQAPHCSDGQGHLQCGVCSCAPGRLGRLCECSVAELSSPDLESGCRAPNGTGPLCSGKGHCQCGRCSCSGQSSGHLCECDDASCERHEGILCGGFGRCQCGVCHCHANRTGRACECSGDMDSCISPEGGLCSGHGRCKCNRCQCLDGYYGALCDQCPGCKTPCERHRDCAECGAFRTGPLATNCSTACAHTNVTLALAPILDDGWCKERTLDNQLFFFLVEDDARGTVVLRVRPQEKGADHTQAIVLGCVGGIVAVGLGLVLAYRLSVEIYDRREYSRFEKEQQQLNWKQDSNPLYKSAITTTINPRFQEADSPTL

[3] = biological target: Integrin alpha-4/beta-7 (Homo sapiens) (UniProt P13612+P26010); test: Selectivity for alpha4-beta7 to that of alpha4-beta1; type: protein-complex assay

T1 sequence (P05556 whole entry, one chain of several): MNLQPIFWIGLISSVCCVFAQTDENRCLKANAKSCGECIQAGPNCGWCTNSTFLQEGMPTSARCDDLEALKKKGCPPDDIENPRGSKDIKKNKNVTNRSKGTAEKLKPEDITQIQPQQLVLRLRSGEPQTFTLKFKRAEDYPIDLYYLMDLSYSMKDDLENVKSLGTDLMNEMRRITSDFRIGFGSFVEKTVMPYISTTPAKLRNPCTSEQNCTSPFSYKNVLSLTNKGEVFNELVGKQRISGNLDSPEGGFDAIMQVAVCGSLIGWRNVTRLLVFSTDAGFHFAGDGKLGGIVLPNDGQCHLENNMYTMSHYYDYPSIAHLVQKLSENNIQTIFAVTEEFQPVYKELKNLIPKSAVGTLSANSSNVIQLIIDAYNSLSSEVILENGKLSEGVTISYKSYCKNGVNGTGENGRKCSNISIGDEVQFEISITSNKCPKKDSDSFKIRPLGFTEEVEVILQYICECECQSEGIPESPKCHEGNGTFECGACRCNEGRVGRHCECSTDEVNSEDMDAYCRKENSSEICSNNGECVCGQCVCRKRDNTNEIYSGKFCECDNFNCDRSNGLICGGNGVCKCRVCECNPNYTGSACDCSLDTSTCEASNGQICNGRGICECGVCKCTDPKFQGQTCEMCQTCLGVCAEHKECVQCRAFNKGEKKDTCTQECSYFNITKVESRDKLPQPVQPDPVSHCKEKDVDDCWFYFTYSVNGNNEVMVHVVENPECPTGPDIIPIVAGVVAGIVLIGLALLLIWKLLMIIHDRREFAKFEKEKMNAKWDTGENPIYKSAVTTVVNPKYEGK

| SMILES | IC50 (Integrin alpha-4/beta-1 [1]) | IC50 (Integrin alpha-4/beta-1 [2]) | IC50 (Integrin alpha-4/beta-7) | Ratio [3] |
| --- | --- | --- | --- | --- |
| COc1ccccc1-c1ccc(C[C@H](NC(=O)[C@@]2(c3ccc(F)cc3)CCCO2)C(=O)O)cc1 | 48 nM | 4.3 nM | 45.7 nM | 11 |
| COc1cccc(OC)c1-c1ccc(C[C@H](NC(=O)[C@@]2(CCCO)CCCO2)C(=O)O)cc1 | 3.36 nM | 2.12 nM | 35.3 nM | 17 |
| COc1ccccc1-c1ccc(C[C@H](NC(=O)[C@@]2(c3ccccc3)CCCO2)C(=O)O)cc1 |  | 2.2 nM | 56.4 nM | 26 |
| COc1ccccc1-c1ccc(C[C@H](NC(=O)[C@@]2(C(=O)N3CCOCC3)CCCO2)C(=O)O)cc1 | 1 nM | 0.54 nM | 8.49 nM | 16 |
| COc1ccccc1-c1ccc(C[C@H](NC(=O)[C@@]2(c3ccc(C(C)(C)C)cc3)CCCO2)C(=O)O)cc1 | 29 nM | 1.8 nM | 99.5 nM | 55 |
| COc1ccccc1-c1ccc(C[C@H](NC(=O)[C@@]2(C)CCCO2)C(=O)O)cc1 | 60.6 nM | 3.9 nM | 45.3 nM | 12 |
| COCCCC[C@]1(C(=O)N[C@@H](Cc2ccc(-c3c(OC)cccc3OC)cc2)C(=O)O)CCCO1 | 1.27 nM | 0.62 nM | 22 nM | 35 |
| COc1cccc(OC)c1-c1ccc(C[C@H](NC(=O)[C@@]2(c3cccc(N)c3)CCCO2)C(=O)O)cc1 | 5.63 nM | 0.92 nM | 26.6 nM | 29 |
| COc1cccc(OC)c1-c1ccc(C[C@H](NC(=O)[C@@]2(C(=O)C(C)C)CCCO2)C(=O)O)cc1 |  | 0.67 nM | 11.2 nM | 22 |
| COc1cc(OC)cc([C@]2(C(=O)N[C@@H](Cc3ccc(-c4c(OC)cccc4OC)cc3)C(=O)O)CCCO2)c1 | 5.77 nM | 1.48 nM |  |  |
| COc1cccc(OC)c1-c1ccc(C[C@H](NC(=O)[C@@]2(CCN(C)C)CCCO2)C(=O)O)cc1 | 19.5 nM | 15.5 nM | 80 nM | 5 |
| COc1ccccc1-c1ccc(C[C@H](NC(=O)[C@@]2(c3cccc(C(F)(F)F)c3)CCCO2)C(=O)O)cc1 | 290 nM | 4.65 nM | 327 nM | 70 |
| CCOC(=O)[C@]1(C(=O)N[C@@H](Cc2ccc(-c3ccccc3OC)cc2)C(=O)O)CCCO1 | 19 nM | 4.06 nM | 51.1 nM | 13 |
| COc1cccc(OC)c1-c1ccc(C[C@H](NC(=O)[C@@]2(C(C)C)CCCO2)C(=O)O)cc1 | 7.46 nM | 0.7 nM | 6.1 nM | 9 |
| COc1ccccc1-c1ccc(C[C@H](NC(=O)[C@@]2(c3cc(C(F)(F)F)cc(C(F)(F)F)c3)CCCO2)C(=O)O)cc1 | 1100 nM | 4.62 nM | 499 nM | 108 |
| COc1cccc(OC)c1-c1ccc(C[C@H](NC(=O)[C@@]2(c3ccc(Cl)cc3)CCCO2)C(=O)O)cc1 | 4.75 nM | 0.55 nM | 52.2 nM | 95 |
| COc1cccc(OC)c1-c1ccc(C[C@H](NC(=O)[C@@]2(CC(C)C)CCCO2)C(=O)O)cc1 | 4.02 nM | 1.15 nM | 22.3 nM | 19 |
| COc1ccc(CNC2CC(C)O[C@@]2(C)C(=O)N[C@@H](Cc2ccc(-c3c(OC)cccc3OC)cc2)C(=O)O)cc1 (some centres undefined) | 14.9 nM | 3.4 nM | 733 nM | 225 |
| CCCC[C@]1(C(=O)N[C@@H](Cc2ccc(-c3c(OC)cccc3OC)cc2)C(=O)O)CCCO1 | 1.46 nM | 0.48 nM | 13.8 nM | 29 |
| COc1ccccc1-c1ccc(C[C@H](NC(=O)[C@@]2(C(=O)N3CCN(C)CC3)CCCO2)C(=O)O)cc1 | 1 nM | 0.59 nM | 23.2 nM | 39 |
| COc1cccc(OC)c1-c1ccc(C[C@H](NC(=O)[C@@]2(c3nc4ccccc4o3)CCCO2)C(=O)O)cc1 | 2.4 nM | 0.42 nM | 377 nM | 897 |
| COc1cccc(OC)c1-c1ccc(C[C@H](NC(=O)[C@@]2(c3cccc([N+](=O)[O-])c3)CCCO2)C(=O)O)cc1 | 0.95 nM | 0.23 nM | 19.6 nM | 85 |
| COc1cccc(OC)c1-c1ccc(C[C@H](NC(=O)[C@@]2(CCCCO)CCCO2)C(=O)O)cc1 | 870 nM | 255 nM | 245 nM | 1 |
| COc1cccc(OC)c1-c1ccc(C[C@H](NC(=O)[C@@]2(CCO)CCCO2)C(=O)O)cc1 | 7.59 nM | 1.56 nM | 16.3 nM | 10 |
| COc1ccccc1-c1ccc(C[C@H](NC(=O)[C@@]2(c3ccc(C(F)(F)F)cc3)CCCO2)C(=O)O)cc1 | 120 nM | 5.31 nM | 504 nM | 95 |
| COc1ccccc1-c1ccc(C[C@H](NC(=O)[C@@]2(C(=O)N3CCCC3)CCCO2)C(=O)O)cc1 | 4.42 nM | 1.33 nM | 22.9 nM | 17 |
| COc1cccc(OC)c1-c1ccc(C[C@H](NC(=O)[C@@]2(c3ncc(C)s3)CCCO2)C(=O)O)cc1 |  | 0.31 nM | 14.5 nM | 47 |
| COc1cccc(OC)c1-c1ccc(C[C@H](NC(=O)[C@]2(C)OC(C)CC2N)C(=O)O)cc1 (some centres undefined) |  | 2.6 nM | 149 nM | 57 |
| COc1cccc(OC)c1-c1ccc(C[C@H](NC(=O)[C@@]2(CCCN(C)C)CCCO2)C(=O)O)cc1 |  | 9.18 nM | 67 nM | 7 |
